Measurements from ChEMBL document CHEMBL3885881, “DrugMatrix”.

Organism: Rattus norvegicus
Type: toxicity, organism-based, Sprague-Dawley
Settings: in vivo, sc, 0 mg/kg, 24 h, route mini-PUMP - SUBCUTANEOUS, dose level Control, time 1 day, vehicle 100 % SALINE
Description: DrugMatrix - Regimen: Single

**Q.** Which “ABSOLUTE EOSINOPHIL” value (tissue Blood) does the source give for `CNC[C@H](O)c1ccc(O)c(O)c1` [EPINEPHRINE] here?
**A.** The value was 26.17 CELLS/uL.

**Q.** What about the “ABSOLUTE LYMPHOCYTE” value (tissue Blood) of the same compound?
**A.** Its value is 10985.83 CELLS/uL.

**Q.** And the “ABSOLUTE MONOCYTE” value (tissue Blood)?
**A.** Its value is 234.5 CELLS/uL.

**Q.** And the “ABSOLUTE SEGMENTED NEUTROPHIL” value (tissue Blood)?
**A.** Its value is 1753.5 CELLS/uL.

**Q.** What about the BASOPHIL (tissue Blood) of the same compound?
**A.** The BASOPHIL was 0%.

**Q.** And the EOSINOPHIL (tissue Blood)?
**A.** Its EOSINOPHIL is 0.17%.

**Q.** And the “ERYTHROCYTE COUNT” value (tissue Blood)?
**A.** Its value is 5.64 x10E6/uL.

**Q.** And the HEMOGLOBIN (tissue Blood)?
**A.** The HEMOGLOBIN was 12.68 G/DL.

**Q.** What about the “LEUKOCYTE COUNT” value (tissue Blood) of the same compound?
**A.** The value was 13 x10E3/uL.

**Q.** And the LYMPHOCYTE (tissue Blood)?
**A.** The LYMPHOCYTE was 84.5%.

**Q.** What about the “MEAN CORPUSCULAR HEMOGLOBIN” value (tissue Blood) of the same compound?
**A.** Its value is 22.5 pg.

**Q.** What about the “MEAN CORPUSCULAR HEMOGLOBIN CONCENTRATION” value (tissue Blood) of the same compound?
**A.** Its value is 36.78 G/DL.

**Q.** What about the “MEAN CORPUSCULAR VOLUME” value (tissue Blood) of the same compound?
**A.** The value was 61.18 fL.

**Q.** And the NEUTROPHIL (tissue Blood)?
**A.** The NEUTROPHIL was 13.5%.

**Q.** What about the “NUCLEATED RED BLOOD CELLS” value (tissue Blood) of the same compound?
**A.** The value was 0.17 /100WBC.

**Q.** What about the “PLATELET COUNT” value (tissue Blood) of the same compound?
**A.** The value was 679.17 x10E3/uL.

**Q.** What about the “ALANINE AMINOTRANSFERASE” value (tissue Plasma) of the same compound?
**A.** The value was 42.67 u/L.

**Q.** What about the ALBUMIN (tissue Plasma) of the same compound?
**A.** The ALBUMIN was 3.77 G/DL.

**Q.** What about the “ALKALINE PHOSPHATASE” value (tissue Plasma) of the same compound?
**A.** The value was 291.17 u/L.

**Q.** What about the “ASPARTATE AMINOTRANSFERASE” value (tissue Plasma) of the same compound?
**A.** Its value is 74.5 u/L.

**Q.** And the “BLOOD UREA NITROGEN” value (tissue Plasma)?
**A.** Its value is 15.33 mg/dL.

**Q.** And the “CARBON DIOXIDE” value (tissue Plasma)?
**A.** Its value is 30 mmol/L.

**Q.** What about the CHLORIDE (tissue Plasma) of the same compound?
**A.** Its CHLORIDE is 100.83 MEQ/L.

**Q.** What about the CHOLESTEROL (tissue Plasma) of the same compound?
**A.** The CHOLESTEROL was 65.33 mg/dL.

**Q.** And the CREATININE (tissue Plasma)?
**A.** The CREATININE was 0.15 mg/dL.

**Q.** What about the “LACTATE DEHYDROGENASE” value (tissue Plasma) of the same compound?
**A.** The value was 162.67 u/L.

**Q.** What about the LIPASE (tissue Plasma) of the same compound?
**A.** Its LIPASE is 8.5 u/L.

**Q.** What about the PHOSPHORUS (tissue Plasma) of the same compound?
**A.** Its PHOSPHORUS is 12.2 mg/dL.

**Q.** And the POTASSIUM (tissue Plasma)?
**A.** The POTASSIUM was 5.73 MEQ/L.

**Q.** What about the SODIUM (tissue Plasma) of the same compound?
**A.** The SODIUM was 144.7 MEQ/L.

**Q.** What about the “TOTAL BILIRUBIN” value (tissue Plasma) of the same compound?
**A.** Its value is 0.15 mg/dL.

**Q.** And the “TOTAL PROTEIN” value (tissue Plasma)?
**A.** Its value is 5.87 G/DL.

**Q.** What about the “URIC ACID” value (tissue Plasma) of the same compound?
**A.** Its value is 1.93 mg/dL.
